From patent publication US20060234866A1, “Formulations with the capacity to increase the efficiency of plants to assimilate different mineral nutrients, especially iron, in normal conditions and in conditions of deficiency of potentially assimilable iron” (Inabonos, S.A., a Spanish joint venture company, priority 2005, published 2006)

Tested on: pepper plants
Experiment: Iron assimilation and development of pepper plants cultivated in hydroponia
Assay type: in vivo
Method: Four different treatments are presented that are applied to peppers: • 1. The control received a nutritive solution containing different nutrients. • 2. The treatment AIA that received the same nutritive control solution was also treated with indol-acetic acid (natural auxin) at a dose of 10^−6 M. • 3. […] The treatment IND2 that received the same nutritive control solution was also treated with the composition of Example 1 at a dose of 10^−9 M. The pepper plants were cultivated in hydroponia.

[1] = dose 10^−6 M in nutritive solution

## O=C(O)Cc1c[nH]c2ccccc12 [AIA, indol-acetic acid]
[1]
  Assimilated Fe, leaves: 0.335 mg plant^−1
  Assimilated Fe, root: 2.90 mg plant^−1
  Dry matter, leaves: 4.04 g plant^−1
  Dry matter, root: 1.43 g plant^−1
  Dry matter, stem: 1.09 g plant^−1
Dose 10^−6 M, control = 100
  Assimilated Fe, leaves (% of control): 103.4%
  Assimilated Fe, root (% of control): 109.8%
  Dry matter, leaves (% of control): 136%
  Dry matter, root (% of control): 130%
  Dry matter, stem (% of control): 138%
Versus control
  assimilation and translocation of iron (in words): no significant effects
  biostimulant effect (in words): presents a biostimulant effect
